The values below are quoted from earlier work in patent US11957711B2 (priority 2021, dated 2024).

Each structure is given as a SMILES string.

For series [1] the following is noted: parts per million in gas; gas generated from HTH and carbon dioxide.

Take `ClOCl` [CL2O, Dichlorine monoxide]: the Solubility in water is recorded as 143 g/100 g. Also, the maximum allowable concentration result in series [1] is on record as “around 1.25 ppm”. Under “CCL4”, the “Solubility in other solvent” value is “soluble in CCL4”.
Turning to `OCl` [HCLO, Hypochlorous acid], in the series on germs, the “time to kill the germs” value is given as “a few seconds”.
